Reference: ChEMBL document CHEMBL5365481, “Design, Synthesis, and Activity Evaluation of Novel Dual-Target Inhibitors with Antifungal and Immunoregulatory Properties” (J Med Chem, 2023)
≈ marks a conversion by molar mass, not a printed value. Calls of active or inactive are those of the source. No cut-off for these calls is given here.

Experiments:
Candida albicans [1] = assay: Antifungal activity against Candida albicans ATCC SC5314 assessed as change in osmotic pressure at 1 microM/ml incubated for 48 hrs by absorbance based assay; format: functional, organism-based
Candida albicans [2] = assay: Induction of mitochondrial membrane depolarization in Candida albicans ATCC SC5314 assessed as depolarized cells at 1 microM/ml incubated for 24 hrs by JC-1 staining based flow cytometry assay (reference value: 0.3 to 5.1%); format: functional
Aspergillus fumigatus = assay: Antifungal activity against Aspergillus fumigatus KM8001 assessed as inhibition of fungal growth incubated for 72 hrs by CLSI based liquid medium microdilution method; format: functional
Candida albicans [3] = assay: In vivo antifungal activity against Candida albicans ATCC SC5314 infected in BALB/c mouse assessed as decrease in number of exogenous fungal cells at 10 ug, ip for 14 days by H and E staining based microscopy; format: functional, organism-based; conditions: dose 10.0 µg, time 14.0 day
Candida albicans [4] = assay: Induction of ROS generation in Candida albicans ATCC SC5314 assessed as increase in fluorescence intensity at 1 microM/ml incubated for 48 hrs by fluorescent microscopy; format: functional, organism-based
Candida albicans [5] = assay: Antifungal activity against fluconazole-resistant Candida albicans 904 assessed as inhibition of fungal growth incubated for 72 hrs by CLSI based liquid medium microdilution method; format: functional
[6] = target: T1, Lanosterol 14-alpha demethylase (Candida albicans (strain SC5314 / ATCC MYA-2876) (Yeast), UniProt P10613); assay: Inhibition of Candida albicans ATCC SC5314 CYP51 assessed as other unknown sterol content at 4 ug/ml measured after 16 hrs by GC-MS analysis (Rvb= 3.82%); set-up: scale not given: the % may be the effect or the level left; conditions: at 4 µg/mL
Candida albicans [7] = assay: In vivo antifungal activity against Candida albicans ATCC SC5314 infected in BALB/c mouse assessed as decrease in COX2 expression level at 10 ug, ip for 14 days by immunohistochemical analysis; format: functional, organism-based; conditions: dose 10.0 µg, time 14.0 day
[8] = target: T1, Lanosterol 14-alpha demethylase; assay: Inhibition of Candida albicans ATCC SC5314 CYP51 using lanosterol as substrate incubated for 30 mins by HPLC assay
[9] = target: T1, Lanosterol 14-alpha demethylase; assay: Inhibition of Candida albicans ATCC SC5314 CYP51 assessed as ergosterol content at 4 ug/ml measured after 16 hrs by GC-MS analysis (reference value: 92.71%); set-up: scale not given: the % may be the effect or the level left; conditions: at 4 µg/mL
Candida albicans [10] = assay: Induction of apoptosis in Candida albicans ATCC SC5314 assessed as necrotic cells at 1 microM/ml incubated for 48 hrs by Hoechst 33258/PI staining based flow cytometry (Rvb= 0.03 +/- 0.01%); format: functional
Candida albicans [11] = assay: Induction of apoptosis in Candida albicans ATCC SC5314 assessed as early apoptotic cells at 1 microM/ml incubated for 48 hrs by Hoechst 33258/PI staining based flow cytometry (Rvb= 5.1 +/- 0.3%); format: functional
[12] = target: T1, Lanosterol 14-alpha demethylase; assay: Inhibition of Candida albicans ATCC SC5314 CYP51 assessed as eburicol content at 4 ug/ml measured after 16 hrs by GC-MS analysis (Rvb= 3.47%); set-up: scale not given: the % may be the effect or the level left; conditions: at 4 µg/mL
[13] = Toxicity in BALB/c mouse infected with Candida albicans ATCC SC5314 assessed as plasma ALT level at 10 ug, ip for 14 days; format: organism-based; conditions: in vivo, 336 h, dose 10 µg, time 14 day
Candida albicans [14] = assay: In vivo antifungal activity against Candida albicans ATCC SC5314 infected in BALB/c mouse assessed as decrease in PD-L1 expression level at 10 ug, ip for 14 days by Western blot analysis; format: functional, organism-based; conditions: dose 10.0 µg, time 14.0 day
[15] = target: T1, Lanosterol 14-alpha demethylase; assay: Inhibition of Candida albicans ATCC SC5314 CYP51 assessed as lanosterol content at 4 ug/ml measured after 16 hrs by GC-MS analysis relative to control; set-up: scale not given: the % may be the effect or the level left; conditions: at 4 µg/mL
Candida albicans [16] = assay: Antifungal activity against fluconazole-resistant Candida albicans 17# assessed as inhibition of fungal growth incubated for 72 hrs by CLSI based liquid medium microdilution method; format: functional
Candida albicans [17] = assay: Induction of apoptosis in Candida albicans ATCC SC5314 assessed as increase in blue fluorescence intensity at 1 microM/ml incubated for 48 hrs by Hoechst 33258/PI staining based fluorescence microscopy; format: functional, organism-based
Candida albicans [18] = assay: In vivo antifungal activity against Candida albicans ATCC SC5314 infected in BALB/c mouse assessed as decrease in COX2 expression level at 10 ug, ip for 14 days by Western blot analysis; format: functional, organism-based; conditions: dose 10.0 µg, time 14.0 day
Candida albicans [19] = assay: Induction of apoptosis in Candida albicans ATCC SC5314 assessed as normal cells at 1 microM/ml incubated for 48 hrs by Hoechst 33258/PI staining based flow cytometry (Rvb= 94.8 +/- 0.3%); format: functional
[20] = Toxicity in BALB/c mouse infected with Candida albicans ATCC SC5314 assessed as plasma BUN level at 10 ug, ip for 14 days; format: organism-based; conditions: in vivo, 336 h, dose 10 µg, time 14 day
Candida albicans [21] = assay: In vivo antifungal activity against Candida albicans ATCC SC5314 infected in BALB/c mouse assessed as decrease in NLRP3 expression level at 10 ug, ip for 14 days by Western blot analysis; format: functional, organism-based; conditions: dose 10.0 µg, time 14.0 day
Pichia kudriavzevii = assay: Antifungal activity against Candida krusei ATCC 6258 assessed as inhibition of fungal growth incubated for 72 hrs by CLSI based liquid medium microdilution method; format: functional
Candida albicans [22] = assay: In vivo antifungal activity against Candida albicans ATCC SC5314 infected in BALB/c mouse assessed as decrease in IL-2 expression level at 10 ug, ip for 14 days by immunohistochemical analysis; format: functional, organism-based; conditions: dose 10.0 µg, time 14.0 day
Candida albicans [23] = assay: In vivo antifungal activity against Candida albicans ATCC SC5314 infected in BALB/c mouse assessed as decrease in IFN-gamma expression level at 10 ug, ip for 14 days by immunohistochemical analysis; format: functional, organism-based; conditions: dose 10.0 µg, time 14.0 day
Candida albicans [24] = assay: Antifungal activity against fluconazole-resistant Candida albicans 901 assessed as inhibition of fungal growth incubated for 72 hrs by CLSI based liquid medium microdilution method; format: functional
Candida albicans [25] = assay: Antifungal activity against fluconazole-resistant Candida albicans 632 assessed as inhibition of fungal growth incubated for 72 hrs by CLSI based liquid medium microdilution method; format: functional
[26] = Toxicity in BALB/c mouse infected with Candida albicans ATCC SC5314 assessed as morphological changes in spleen at 10 ug, ip for 14 days by H and E staining based microscopy; format: organism-based; conditions: in vivo, 336 h, dose 10 µg, time 14 day
Candida albicans [27] = assay: Antifungal activity against Candida albicans ATCC SC5314 assessed as decrease in fungal cell density at 1 microM/ml incubated for 48 hrs by absorbance based assay; format: functional, organism-based
Candida albicans [28] = assay: In vivo antifungal activity against Candida albicans ATCC SC5314 infected in BALB/c mouse assessed as reversal of cell morphology to normal state at 10 ug, ip for 14 days by GMS staining based microscopy; format: functional, organism-based; conditions: dose 10.0 µg, time 14.0 day
Candida albicans [29] = assay: In vivo antifungal activity against Candida albicans ATCC SC5314 infected in BALB/c mouse assessed as shrinkage in infected region at 10 ug, ip for 14 days; format: functional, organism-based; conditions: dose 10.0 µg, time 14.0 day
Cryptococcus neoformans = assay: Antifungal activity against Cryptococcus neoformans ZKCC 2209 assessed as inhibition of fungal growth incubated for 72 hrs by CLSI based liquid medium microdilution method; format: functional
[30] = Toxicity in BALB/c mouse infected with Candida albicans ATCC SC5314 assessed as morphological changes in lung at 10 ug, ip for 14 days by H and E staining based microscopy; format: organism-based; conditions: in vivo, 336 h, dose 10 µg, time 14 day

T1 sequence (P10613 whole entry): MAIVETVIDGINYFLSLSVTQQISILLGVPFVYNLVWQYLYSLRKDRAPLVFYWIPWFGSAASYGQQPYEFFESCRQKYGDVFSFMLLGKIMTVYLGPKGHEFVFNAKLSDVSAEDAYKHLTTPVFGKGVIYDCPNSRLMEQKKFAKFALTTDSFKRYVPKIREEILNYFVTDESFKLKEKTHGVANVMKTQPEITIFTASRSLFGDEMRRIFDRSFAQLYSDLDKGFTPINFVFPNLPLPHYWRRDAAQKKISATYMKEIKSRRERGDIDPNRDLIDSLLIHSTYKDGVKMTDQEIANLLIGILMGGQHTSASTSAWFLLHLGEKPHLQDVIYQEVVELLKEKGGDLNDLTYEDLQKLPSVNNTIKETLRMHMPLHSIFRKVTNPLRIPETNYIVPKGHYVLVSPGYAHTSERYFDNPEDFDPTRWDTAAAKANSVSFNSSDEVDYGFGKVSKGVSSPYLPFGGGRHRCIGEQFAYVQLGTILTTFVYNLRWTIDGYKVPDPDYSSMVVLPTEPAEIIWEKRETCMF

For OC(Cn1cncn1)(Cn1cncn1)c1ccc(F)cc1F [FLUCONAZOLE], the Activity (Candida albicans [1]) was “Active”, the Activity (Candida albicans [2]) was 0.28% and the MIC50 (Aspergillus fumigatus) was over 8 mg/L. For the same compound, the Activity (Candida albicans [3]) was “Active”, the Activity (Candida albicans [4]) was “Active” and the MIC50 (Candida albicans [5]) was over 8 mg/L. For the same compound, the Activity [6] was 5.58%, the Activity (Candida albicans [7]) was “Active” and the IC50 [8] was 0.159 µM. It also gave an Activity [9] of 17.84%, an Activity (Candida albicans [10]) of 0.02% and an Activity (Candida albicans [11]) of 55.3%. The Activity [12] was 46.52%, the Activity [13] was 41.9 IU/L and the Activity (Candida albicans [14]) was “Active”. The Activity [15] was 30.06%, the MIC50 (Candida albicans [16]) was over 8 mg/L and the Activity (Candida albicans [17]) was “Active”. The Activity (Candida albicans [18]) was “Active”, the Activity (Candida albicans [19]) was 44.6% and the Activity [20] was 24.2 mM. The Activity (Candida albicans [21]) was “Active”, the MIC50 (Pichia kudriavzevii) was 1 mg/L (≈ 3.27 µM) and the Activity (Candida albicans [22]) was “Active”. For the same compound, the Activity (Candida albicans [23]) was “Active”, the MIC50 (Candida albicans [24]) was over 8 mg/L and the MIC50 (Candida albicans [25]) was over 8 mg/L. The Activity [26] was “Non-Toxic”, the Activity (Candida albicans [27]) was “Active” and the Activity (Candida albicans [28]) was “Active”. For the same compound, the Activity (Candida albicans [29]) was “Active”, the MIC50 (Cryptococcus neoformans) was 1 mg/L (≈ 3.27 µM) and the Activity [30] was “Non-Toxic”.

In the case of CC(C)c1ccc(C(=O)N2CCC(NC(=O)c3nc(-n4ccnc4)c4ccccc4n3)CC2)cc1, the Activity (Candida albicans [1]) is reported as “Active”, the Activity (Candida albicans [2]) is reported as 0.1% and the MIC50 (Aspergillus fumigatus) is reported as 2 mg/L (≈ 4.27 µM). For the same compound, the Activity (Candida albicans [3]) was “Active”, the Activity (Candida albicans [4]) was “Active” and the MIC50 (Candida albicans [5]) was over 8 mg/L. For the same compound, the Activity [6] was 5.58%, the Activity (Candida albicans [7]) was “Active” and the IC50 [8] was 0.205 µM. It also gave an Activity [9] of 20.92%, an Activity (Candida albicans [10]) of 0.03% and an Activity (Candida albicans [11]) of 54.5%. For the same compound, the Activity [12] was 45.04%, the Activity [13] was 30.5 IU/L and the Activity (Candida albicans [14]) was “Active”. For the same compound, the Activity [15] was 29.53%, the MIC50 (Candida albicans [16]) was 2 mg/L (≈ 4.27 µM) and the Activity (Candida albicans [17]) was “Active”. The Activity (Candida albicans [18]) was “Active”, the Activity (Candida albicans [19]) was 45.3% and the Activity [20] was 20.2 mM. The Activity (Candida albicans [21]) was “Active”, the MIC50 (Pichia kudriavzevii) was 0.5 mg/L (≈ 1.07 µM) and the Activity (Candida albicans [22]) was “Active”. For the same compound, the Activity (Candida albicans [23]) was “Active”, the MIC50 (Candida albicans [24]) was 4 mg/L (≈ 8.54 µM) and the MIC50 (Candida albicans [25]) was 1 mg/L (≈ 2.13 µM). For the same compound, the Activity [26] was “Non-Toxic”, the Activity (Candida albicans [27]) was “Active” and the Activity (Candida albicans [28]) was “Active”. The Activity (Candida albicans [29]) was “Active”, the MIC50 (Cryptococcus neoformans) was 0.5 mg/L (≈ 1.07 µM) and the Activity [30] was “Non-Toxic”.

With CC(=O)c1ccc(C(=O)N2CCC(NC(=O)c3nc(-n4cncn4)c4ccccc4n3)CC2)cc1 the Activity (Candida albicans [1]) was “Active”, the Activity (Candida albicans [2]) was 1.27% and the MIC50 (Aspergillus fumigatus) was 1 mg/L (≈ 2.13 µM). The Activity (Candida albicans [3]) was “Active”, the Activity (Candida albicans [4]) was “Active” and the MIC50 (Candida albicans [5]) was 2 mg/L (≈ 4.26 µM). The Activity [6] was 5.74%, the Activity (Candida albicans [7]) was “Active” and the IC50 [8] was 0.263 µM. The Activity [9] was 18.64%, the Activity (Candida albicans [10]) was 0.02% and the Activity (Candida albicans [11]) was 57.9%. For the same compound, the Activity [12] was 43.15%, the Activity [13] was 32.3 IU/L and the Activity (Candida albicans [14]) was “Active”. For the same compound, the Activity [15] was 32.47%, the MIC50 (Candida albicans [16]) was 1 mg/L (≈ 2.13 µM) and the Activity (Candida albicans [17]) was “Active”. For the same compound, the Activity (Candida albicans [18]) was “Active”, the Activity (Candida albicans [19]) was 42% and the Activity [20] was 17.9 mM. For the same compound, the Activity (Candida albicans [21]) was “Active”, the MIC50 (Pichia kudriavzevii) was 0.25 mg/L (≈ 0.532 µM) and the Activity (Candida albicans [22]) was “Active”. The Activity (Candida albicans [23]) was “Active”, the MIC50 (Candida albicans [24]) was 4 mg/L (≈ 8.52 µM) and the MIC50 (Candida albicans [25]) was 1 mg/L (≈ 2.13 µM). The Activity [26] was “Non-Toxic”, the Activity (Candida albicans [27]) was “Active” and the Activity (Candida albicans [28]) was “Active”. The Activity (Candida albicans [29]) was “Active”, the MIC50 (Cryptococcus neoformans) was 0.5 mg/L (≈ 1.06 µM) and the Activity [30] was “Non-Toxic”.
